For experiment [1], the system named is TM-1 cells (human trabecular meshwork cell line). In words: Test for evaluation of effect of morphological change on trabecular meshwork cells (cell shape index). The settings on record: 10 μM, 24 hours, control CSI 0.679, lower CSI indicates greater morphological change. The experiment is classed as cell-based. On the procedure:
As a method for evaluating a cellular morphological change, an evaluation system using the cell shape index (hereinafter referred to as “CSI”) as an index has been reported in The Journal of Clinical Investigation, 103, 1141-1150 (1999). Therefore, according to the method described in the above document, an effect of morphological change by the present compounds on trabecular meshwork cells was evaluated.
A human trabecular meshwork cell line (hereinafter referred to as “TM-1 cells”) reported in Investigative Opthalmology & Visual Science, 43, 151-161 (2002) was used.
Culture medium 1: A reagent was prepared by adding fetal bovine serum (10%), L-glutamine (2 mM), amphotericin B (2.5 μg/mL), and gentamicin (25 μg/mL) to Dulbecco's Modified Eagle Medium (hereinafter referred to as “D-MEM”).
Culture medium 2: Fetal bovine serum (3%), L-glutamine (2 mM), amphotericin B (2.5 μg/mL), and gentamicin (25 μg/mL) were added to D-MEM.
Cell staining liquid: A mixed liquid of Calcein-AM (16 μM) and Hoechst 33342 (40 μM) was prepared by diluting a Calcein-AM solution (cytoplasmic staining reagent, manufactured by Dojindo Laboratories) and a Hoechst 33342 solution (nuclear staining reagent, manufactured by Dojindo Laboratories) with D-MEM containing L-glutamine (2 mM), amphotericin B (2.5 μg/mL), and gentamicin (25 μg/mL).
TM-1 cells subcultured at 37° C. in a 8% carbon dioxide gas atmosphere were treated with a trypsin/EDTA solution (0.05% trypsin and 0.53 mM tetrasodium ethylenediaminetetraacetate) at 24 hours before performing a drug treatment mentioned below and seeded on a 96-well culture plate. The culture medium 1 was used for the subculture of the cells. The culture medium 2 was used for the cell culture after seeding the cells on the plate.
A test compound was dissolved in dimethyl sulfoxide, whereby a 5 mM solution was prepared. Then, the resulting solution was diluted with the culture medium 2, whereby a 200 μM test compound solution was prepared.
It has been reported that Y-27632 which is a Rho kinase inhibitor induces a morphological change in trabecular meshwork cells in Investigative Opthalmology & Visual Science, 42, 137-144 (2001). Therefore, Y-27632 (produced according to the method described in WO 90/05723) was used as a positive control, and dissolved in dimethyl sulfoxide in the same manner as the test compound, whereby a 5 mM solution was prepared, and then, the resulting solution was diluted with the culture medium 2, whereby a 200 μM positive control compound solution was prepared.
1) To a 96-well culture plate, a solution of TM-1 cells adjusted to a cell density of […] was added in an amount of 95 μL (1.5×10^4 cells) per well.
2) Incubation was performed at 37° C. in a 8% carbon dioxide gas atmosphere for 24 hours.
3) The test compound solution or positive control compound solution was added in an amount of 5 μL per well (the final concentration of the test compound or positive control compound was 10 μM). As a control, the culture medium 2 containing dimethyl sulfoxide (4%) was added in an amount of 5 μL per well.
4) Incubation was performed at 37° C. in a 8% carbon dioxide gas atmosphere for 24 hours.
5) The cell staining liquid was added in an amount of 10 μL per well.
6) Incubation was performed at 37° C. in a 8% carbon dioxide gas atmosphere for 1 hour to stain the cells.
7) A 37% formaldehyde solution was added in an amount of 10 μL per well.
8) Incubation was performed at room temperature for 1 hour to fix the cells.
9) Washing with phosphate-buffered saline was performed.
10) Using Array Scan Vti HCS reader (manufactured by Cellomics), images of stained cells magnified with a 20-fold objective lens were captured in 80 fields (10 fields×8 wells) per test compound addition group.
11) CSI was calculated for each cell and an average value was obtained for each test compound addition group.
CSI was calculated using the following equation.
CSI=4π×(Cell Area)/(Cell Perimeter)^2

Experiment [2] relates to HDAC (HeLa nuclear extract). Description: Test for evaluation of an HDAC inhibitory effect (HDAC Fluorimetric Assay/Drug Discovery Kit, Biomol). The experiment is classed as biochemical. Conditions: final concentration of test compound 30 μM, rates of more than 100% are shown as 100%. As to the method:
Using HDAC Fluorimetric Assay/Drug Discovery Kit (manufactured by Biomol), an HDAC inhibitory effect of the present compounds was measured according to the protocol included with the kit. The kit contains Buffer, HeLa nuclear extract (includes an HDAC), Substrate, Developer and Trichostatin A (an HDAC inhibitor).
A test compound was dissolved in dimethyl sulfoxide, whereby a 2 mg/mL solution was prepared. Then, the resulting solution was diluted with Buffer containing 5% dimethyl sulfoxide, whereby a 150 μM test compound solution was prepared.
1) To a 384-well culture plate, the test compound solution was added in an amount of 2 μL per well.
2) HeLa nuclear extract was diluted 30-fold with Buffer. The resulting solution was added in an amount of 3 μL per well and then, incubation was performed at 37° C. for 2 hours.
3) Substrate was diluted 500-fold with Buffer. The resulting solution was added in an amount of 5 μL per well (the final concentration of the test compound was 30 μM) and then, incubation was performed at 37° C. for 10 minutes.
4) Developer was diluted 20-fold with Buffer and Trichostatin A (2 μM) was added to it. The resulting solution was added in an amount of 10 μL per well and then, incubation was performed at room temperature for 15 minutes.
5) The fluorescence intensity of each well was measured using multilabel counter ARVO (manufactured by Wallac) with excitation at 360 nm and emission at 460 nm.
6) A control data was obtained from the same experiment except that Buffer containing 5% DMSO was added instead of the test compound solution as the above-mentioned procedure from 1) to 5).
7) A blank data was obtained from the same experiment except that Buffer containing 5% DMSO was added instead of the test compound solution and that Buffer was added instead of Hela nuclear extract as the above-mentioned procedure from 1) to 5).
Enzyme inhibitory rate (%) was calculated using the following equation.
(Enzyme Inhibitory Rate(%))=100×[1−{(Fluorescence Intensity of Test Compound Solution)−(Florescence Intensity of Blank)}/{(Florescence Intensity of Control)−(Florescence Intensity of Blank)}]

`O=C(/C=C/c1cccc(C(=O)NO)c1)NO` [CBHA, N-Hydroxy-3-[3-hydroxyamino-3-oxo-1-propenyl]benzamide, reference compound]: the CSI in experiment [1] came to 0.545. Besides, in experiment [2], the “Enzyme Inhibitory Rate (%)” value was found to be 99%.

`CN(C)CCCN(Cc1ccc(C(=O)Nc2ccccc2N)nc1)C(=O)Nc1ccc2c(c1)OCCO2` [Compound 1-2, N-(2-Aminophenyl)-5-[3-(2,3-dihydrobenzo[1,4]dioxin-6-yl)-1-(3-dimethylaminopropyl)ureidomethyl]pyridine-2-carboxylic acid amide]: the CSI in experiment [1] came to 0.516. For the same compound, the “Enzyme Inhibitory Rate (%)” value in experiment [2] came out at 100%.

Turning to `Nc1ccccc1NC(=O)c1ccc(CN(CCCN2CCOCC2)C(=O)NCCc2ccccc2)cn1` [Compound 1-3, N-(2-Aminophenyl)-5-[1-[3-(morpholin-4-yl)propyl]-3-phenethylureidomethyl]pyridine-2-carboxylic acid amide], the CSI in experiment [1] is recorded as 0.569. Moreover, the “Enzyme Inhibitory Rate (%)” value in experiment [2] amounted to 100%.

Compound `CN(C)CCCN(Cc1ccc(C(=O)Nc2ccccc2N)nc1)C(=O)Nc1ccc(F)c(F)c1` [Compound 1-4, N-(2-Aminophenyl)-5-[3-(3,4-difluorophenyl)-1-(3-dimethylaminopropyl)ureidomethyl]pyridine-2-carboxylic acid amide] displayed a CSI in experiment [1] of 0.556. Also, the “Enzyme Inhibitory Rate (%)” value in experiment [2] was 100%.

On to `COc1ccc(NC(=O)N(CCCN(C)C)Cc2ccc(C(=O)Nc3ccccc3N)nc2)cc1` [Compound 1-6, N-(2-Aminophenyl)-5-[1-(3-dimethylaminopropyl)-3-(4-methoxyphenyl)ureidomethyl]pyridine-2-carboxylic acid amide], for which the CSI in experiment [1] was found to be 0.549. Also, the “Enzyme Inhibitory Rate (%)” value in experiment [2] came to 100%.

Compound `Nc1ccccc1NC(=O)c1ccc(CN(CCCN2CCOCC2)C(=O)Nc2cccnc2)cn1` [Compound 1-8, N-(2-Aminophenyl)-5-[1-[3-(morpholin-4-yl)propyl]-3-(pyridin-3-yl)ureidomethyl]pyridine-2-carboxylic acid amide] gave a CSI in experiment [1] of 0.538. Moreover, the “Enzyme Inhibitory Rate (%)” value in experiment [2] came out at 96%.

In experiment [1], `CN(C)CCCN(Cc1ccc(C(=O)Nc2ccccc2N)nc1)C(=O)Nc1cccc(F)c1` [Compound 1-10, N-(2-Aminophenyl)-5-[1-(3-dimethylaminopropyl)-3-(3-fluorophenyl)ureidomethyl]pyridine-2-carboxylic acid amide] returned a CSI of 0.528. In experiment [2], the “Enzyme Inhibitory Rate (%)” value stood at 98%.

In experiment [1], `Cc1ccc(NC(=O)N(CCCN(C)C)Cc2ccc(C(=O)Nc3ccccc3N)nc2)cc1F` [Compound 1-13, N-(2-Aminophenyl)-5-[1-(3-dimethylaminopropyl)-3-(3-fluoro-4-methylphenyl)ureidomethyl]pyridine-2-carboxylic acid amide] returned a CSI of 0.545. For the same compound, in experiment [2], the “Enzyme Inhibitory Rate (%)” value is on record as 100%.

Compound `Cc1cc(NC(=O)N(CCCN(C)C)Cc2ccc(C(=O)Nc3ccccc3N)nc2)ccc1F` [Compound 1-14, N-(2-Aminophenyl)-5-[1-(3-dimethylaminopropyl)-3-(4-fluoro-3-methylphenyl)ureidomethyl]pyridine-2-carboxylic acid amide] returned a CSI in experiment [1] of 0.520. Also, in experiment [2], the “Enzyme Inhibitory Rate (%)” value is 100%.

Compound `CN(C)CCCN(Cc1ccc(C(=O)Nc2ccccc2N)nc1)C(=O)Nc1ccc(C#N)cc1` [Compound 1-20, N-(2-Aminophenyl)-5-[3-(4-cyanophenyl)-1-(3-dimethylaminopropyl)ureidomethyl]pyridine-2-carboxylic acid amide] yielded a CSI in experiment [1] of 0.516. The “Enzyme Inhibitory Rate (%)” value in experiment [2] came out at 99%.

For the compound `C[C@@H](N)[C@H]1CC[C@H](C(=O)Nc2ccncc2)CC1` [Compound Y-27632, reference compound], the CSI in experiment [1] came out at 0.543.

For the origin of these results see US20100056522A1, “INTRAOCULAR PRESSURE-LOWERING AGENT COMPRISING COMPOUND HAVING HISTONE DEACETYLASE INHIBITOR EFFECT AS ACTIVE INGREDIENT” (Santen Pharmaceutical Co., Ltd., priority 2007, published 2010).
